Experimental data as given in patent US20240368173A1, “TRICYCLIC GPR65 MODULATORS” (PATHIOS THERAPEUTICS LIMITED, priority 2021, published 2024).

Biological target: human recombinant GPR65 (Homo sapiens, UniProt Q8IYL9)
Assay: Human GPR65 cAMP HTRF antagonist assay
Format: cell-based
Settings: not given
From the text: In one preferred embodiment, the compound prevents the increase in cytoplasmic cAMP levels expected following GPR65 activation at acidic pH. This prevention of cAMP accumulation in turn prevents downstream signalling through ICER, as described above. The “Human GPR65 cyclic adenosine monophosphate (cAMP) Homogeneous Time Resolved Fluorescence (HTRF) antagonist assay”, or simply “cAMP assay”, as described in the accompanying examples, can be used to measure the potency of GPR65 modulators, which is expressed as the concentration of compound required to reduce the increase in cAMP concentration upon GPR65 activation by 50% (i.e. an IC50).
Human GPR65 Cyclic Adenosine Monophosphate (cAMP) Homogeneous Time Resolved Fluorescence (HTRF) Antagonist Assay Procedure
IC50 data was obtained by the following procedure:
1321N1 human astrocytoma cells stably expressing human recombinant GPR65 (1321N1-hrGPR65 cells, EuroscreenFast) were cultured according to the vendor's instructions.
Compounds were tested for their ability to antagonise GPR65, through measuring the concentration of cytoplasmic cAMP following treatment of the cells at a pH of 7.2 to activate GPR65 signalling and addition of the compound to be tested. The extent to which the expected rise in cAMP concentration upon GPR65 activation was suppressed by the added compound is indicative of its potency. The assay was carried out according to EuroscreenFast assay Methodology as follows.
On the day of the assay, test compounds were added to 384-well, low volume, white microtiter plates by acoustic dispensing. KRH buffer (5 mM KCl, 1.25 mM MgSO4, 124 mM NaCl, 25 mM HEPES, 13.3 mM Glucose, 1.25 mM KH2PO4 and 1.45 mM CaCl2) was adjusted to pH 6.5, pH 7.6 and pH 8.4 by adding NaOH. 1321N1-hGPR65 cells were rapidly thawed and diluted in KRH, pH 7.6 prior to centrifugation at 300×g for 5 min and resuspension in assay buffer (KRH, pH 7.6, supplemented with 1 mM 3-isobutyl-1-methylxanthine (IBMX) and 200 μM ethylenediaminetetraacetic acid (EDTA)). Cells were added to assay plates at a density of 2,000 cells per well in a volume of 5 μl. Assay plates were briefly centrifuged at 100×g and then incubated at room temperature for 30 min. Cells were stimulated by the addition of 5 μL KRH, pH 6.5, to achieve an assay pH of 7.2, while control wells received 5 μl KRH, pH 8.4 to achieve an assay pH of 7.9. Assay plates were briefly centrifuged at 100×g and then incubated at room temperature for 30 min.
Accumulation of cAMP was detected by cAMP HTRF kit (Cisbio). d2-labeled cAMP and cryptate-labeled anti-cAMP antibody in Lysis and Detection Buffer (Cisbio) were added to assay plates, and the plates were incubated at room temperature for 1 h. HTRF measurements were performed using a Pherastar FSX instrument. Acceptor and donor emission signals were measured at 665 nm and 620 nm, respectively, and HTRF ratios were calculated as signal665 nm/signal620 nm×10^4. Data were normalised to high and low control values and fitted with 4-parameter logistic regression to determine hGPR65 IC50 values for the test compounds, which are shown in Table 1.

human recombinant GPR65, sequence (Q8IYL9 whole entry): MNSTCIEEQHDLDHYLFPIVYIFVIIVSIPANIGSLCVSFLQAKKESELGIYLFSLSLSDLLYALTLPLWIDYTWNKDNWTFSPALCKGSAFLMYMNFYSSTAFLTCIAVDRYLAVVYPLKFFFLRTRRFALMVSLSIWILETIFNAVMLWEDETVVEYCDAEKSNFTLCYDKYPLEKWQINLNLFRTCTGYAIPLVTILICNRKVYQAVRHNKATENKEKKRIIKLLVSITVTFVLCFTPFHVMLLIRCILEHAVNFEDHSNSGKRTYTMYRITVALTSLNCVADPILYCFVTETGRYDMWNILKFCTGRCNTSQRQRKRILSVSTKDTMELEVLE

Compound | IC50
O=C(Nc1cc(Br)c(Cl)cc1F)N1[C@H]2CC[C@@H]1c1c[nH]c(=O)nc1C2 [Compound 26, (5R,8S)-N-(5-Bromo-4-chloro-2-fluorophenyl)-2-oxo-3,5,6,7,8,9-hexahydro-2H-5,8-epiminocyclohepta[d]pyrimidine-10-carboxamide] | < 500 nM
O=C(Nc1cc(Br)c(C(F)(F)F)cc1F)N1[C@H]2CC[C@@H]1c1c[nH]c(=O)nc1C2 [Compound 28, (5R,8S)-N-(5-Bromo-2-fluoro-4-(trifluoromethyl)phenyl)-2-oxo-3,5,6,7,8,9-hexahydro-2H-5,8-epiminocyclohepta[d]pyrimidine-10-carboxamide] | < 500 nM
O=C(Nc1ccc(C(F)(F)F)c(Br)c1)N1[C@@H]2CC[C@H]1c1n[nH]c(=O)cc1C2 [Compound 30, (6R,9S)-N-(3-Bromo-4-(trifluoromethyl)phenyl)-3-oxo-3,5,6,7,8,9-hexahydro-2H-6,9-epiminocyclohepta[c]pyridazine-10-carboxamide] | > 5000 nM
O=C(Nc1ccc(C(F)(F)F)c(Br)c1)N1[C@H]2CC[C@@H]1c1n[nH]c(=O)cc1C2 [Compound 31, (6S,9R)-N-(3-Bromo-4-(trifluoromethyl)phenyl)-3-oxo-3,5,6,7,8,9-hexahydro-2H-6,9-epiminocyclohepta[c]pyridazine-10-carboxamide] | < 500 nM
O=C(Nc1cc(Cl)c(Br)cc1F)N1[C@H]2CC[C@@H]1c1n[nH]c(=O)cc1C2 [Compound 32, (6S,9R)-N-(4-Bromo-5-chloro-2-fluorophenyl)-3-oxo-3,5,6,7,8,9-hexahydro-2H-6,9-epiminocyclohepta[c]pyridazine-10-carboxamide] | < 500 nM
O=C(Nc1cc(Br)c(C(F)(F)F)cc1F)N1[C@H]2CC[C@@H]1c1n[nH]c(=O)cc1C2 [Compound 35, (6S,9R)-N-(5-Bromo-2-fluoro-4-(trifluoromethyl)phenyl)-3-oxo-3,5,6,7,8,9-hexahydro-2H-6,9-epiminocyclohepta[c]pyridazine-10-carboxamide] | < 500 nM
O=C(Nc1cc(Br)c(Cl)cc1F)N1[C@H]2CC[C@@H]1c1n[nH]c(=O)cc1C2 [Compound 37, (6S,9R)-N-(5-Bromo-4-chloro-2-fluorophenyl)-3-oxo-3,5,6,7,8,9-hexahydro-2H-6,9-epiminocyclohepta[c]pyridazine-10-carboxamide] | < 500 nM
O=C(Nc1cc(Br)c(Cl)cc1F)N1[C@@H]2CC[C@H]1c1n[nH]c(=O)cc1C2 [Compound 38, (6R,9S)-N-(5-Bromo-4-chloro-2-fluorophenyl)-3-oxo-3,5,6,7,8,9-hexahydro-2H-6,9-epiminocyclohepta[c]pyridazine-10-carboxamide] | 500 to 5000 nM
O=C(Nc1ccc(Br)c(Cl)c1)N1[C@H]2CC[C@@H]1c1n[nH]c(=O)cc1C2 [Compound 39, (6S,9R)-N-(4-Bromo-3-chlorophenyl)-3-oxo-3,5,6,7,8,9-hexahydro-2H-6,9-epiminocyclohepta[c]pyridazine-10-carboxamide] | < 500 nM
N#Cc1cc(NC(=O)N2[C@H]3CC[C@@H]2c2n[nH]c(=O)cc2C3)ccc1C(F)(F)F [Compound 41, (6S,9R)-N-(3-Cyano-4-(trifluoromethyl)phenyl)-3-oxo-3,5,6,7,8,9-hexahydro-2H-6,9-epiminocyclohepta[c]pyridazine-10-carboxamide] | < 500 nM
O=C(Nc1cc(Cl)c(C2CC2)cc1F)N1[C@H]2CC[C@@H]1c1n[nH]c(=O)cc1C2 [Compound 42, (6S,9R)-N-(5-Chloro-4-cyclopropyl-2-fluorophenyl)-3-oxo-3,5,6,7,8,9-hexahydro-2H-6,9-epiminocyclohepta[c]pyridazine-10-carboxamide] | < 500 nM
O=C(Nc1ccc(OC(F)(F)F)c(Cl)c1)N1[C@H]2CC[C@@H]1c1n[nH]c(=O)cc1C2 [Compound 46, (6S,9R)-N-(3-Chloro-4-(trifluoromethoxy)phenyl)-3-oxo-3,5,6,7,8,9-hexahydro-2H-6,9-epiminocyclohepta[c]pyridazine-10-carboxamide] | < 500 nM
O=C(Nc1ccc(Br)c(C(F)(F)F)c1)N1[C@H]2CC[C@@H]1c1n[nH]c(=O)cc1C2 [Compound 47, (6S,9R)-N-(4-Bromo-3-(trifluoromethyl)phenyl)-3-oxo-3,5,6,7,8,9-hexahydro-2H-6,9-epiminocyclohepta[c]pyridazine-10-carboxamide] | < 500 nM
O=C(Nc1ccc(Br)c(C(F)(F)F)c1)N1[C@@H]2CC[C@H]1c1n[nH]c(=O)cc1C2 [Compound 48, (6R,9S)-N-(4-Bromo-3-(trifluoromethyl)phenyl)-3-oxo-3,5,6,7,8,9-hexahydro-2H-6,9-epiminocyclohepta[c]pyridazine-10-carboxamide] | 500 to 5000 nM
O=C(Nc1ccc(Cl)c(Br)c1)N1[C@H]2CC[C@@H]1c1n[nH]c(=O)cc1C2 [Compound 49, (6S,9R)-N-(3-Bromo-4-chlorophenyl)-3-oxo-3,5,6,7,8,9-hexahydro-2H-6,9-epiminocyclohepta[c]pyridazine-10-carboxamide] | < 500 nM

Same assay, conditions: 1321N1-hrGPR65 cells, cAMP HTRF, assay pH 7.2; read-out: hGPR65 IC50 (Activity of selected compounds according to the invention)

Compound | IC50
O=C(Nc1cc(Cl)c(C(F)(F)F)cc1F)N1[C@@H]2CC[C@H]1c1c[nH]c(=O)nc1C2 [Compound 25, (5S,8R)-N-(5-Chloro-2-fluoro-4-(trifluoromethyl)phenyl)-2-oxo-3,5,6,7,8,9-hexahydro-2H-5,8-epiminocyclohepta[d]pyrimidine-10-carboxamide] | 500 to 5000 nM
O=C(Nc1cc(Br)c(Cl)cc1F)N1[C@@H]2CC[C@H]1c1c[nH]c(=O)nc1C2 [Compound 27, (5S,8R)-N-(5-Bromo-4-chloro-2-fluorophenyl)-2-oxo-3,5,6,7,8,9-hexahydro-2H-5,8-epiminocyclohepta[d]pyrimidine-10-carboxamide] | 500 to 5000 nM
O=C(Nc1cc(Br)c(C(F)(F)F)cc1F)N1[C@@H]2CC[C@H]1c1c[nH]c(=O)nc1C2 [Compound 29, (5S,8R)-N-(5-Bromo-2-fluoro-4-(trifluoromethyl)phenyl)-2-oxo-3,5,6,7,8,9-hexahydro-2H-5,8-epiminocyclohepta[d]pyrimidine-10-carboxamide] | > 5000 nM
O=C(Nc1cc(Cl)c(Br)cc1F)N1[C@@H]2CC[C@H]1c1n[nH]c(=O)cc1C2 [Compound 33, (6R,9S)-N-(4-Bromo-5-chloro-2-fluorophenyl)-3-oxo-3,5,6,7,8,9-hexahydro-2H-6,9-epiminocyclohepta[c]pyridazine-10-carboxamide] | > 5000 nM
O=C(Nc1cc(Br)c(C(F)(F)F)cc1F)N1[C@@H]2CC[C@H]1c1n[nH]c(=O)cc1C2 [Compound 34, (6R,9S)-N-(5-Bromo-2-fluoro-4-(trifluoromethyl)phenyl)-3-oxo-3,5,6,7,8,9-hexahydro-2H-6,9-epiminocyclohepta[c]pyridazine-10-carboxamide] | > 5000 nM
O=C(Nc1ccc(Br)c(Cl)c1)N1[C@@H]2CC[C@H]1c1n[nH]c(=O)cc1C2 [Compound 40, (6R,9S)-N-(4-Bromo-3-chlorophenyl)-3-oxo-3,5,6,7,8,9-hexahydro-2H-6,9-epiminocyclohepta[c]pyridazine-10-carboxamide] | > 5000 nM
O=C(Nc1ccc(OC(F)(F)F)c(Cl)c1)N1[C@@H]2CC[C@H]1c1n[nH]c(=O)cc1C2 [Compound 45, (6R,9S)-N-(3-Chloro-4-(trifluoromethoxy)phenyl)-3-oxo-3,5,6,7,8,9-hexahydro-2H-6,9-epiminocyclohepta[c]pyridazine-10-carboxamide] | > 5000 nM
O=C(Nc1ccc(Cl)c(Br)c1)N1[C@@H]2CC[C@H]1c1n[nH]c(=O)cc1C2 [Compound 50, (6R,9S)-N-(3-Bromo-4-chlorophenyl)-3-oxo-3,5,6,7,8,9-hexahydro-2H-6,9-epiminocyclohepta[c]pyridazine-10-carboxamide] | > 5000 nM
COc1ccc2c(n1)C[C@@H]1CC[C@H]2N1C(=O)Nc1cc(Cl)c(Cl)cc1F [Compound 54, (5R,8S)-N-(4,5-Dichloro-2-fluorophenyl)-2-methoxy-6,7,8,9-tetrahydro-5H-5,8-epiminocyclohepta[b]pyridine-10-carboxamide] | > 5000 nM
